Laboratory results taken from US20080249129A1, “Compositions and Methods for Treatment of Protein Misfolding Diseases” (priority 2004, published 2008).
Where a name gives a salt, the structure may show the parent alone. Peptide text beside a SMILES is read from it.

System: yeast expressing one copy of alpha synuclein
Format: cell-based
Conditions: not given
Source text: (§1) Phenotype MicroArray™ (Biolog, Inc., Hayward, Calif.) was employed to evaluate the effects of various compounds in yeast expressing one or two copies of alpha synuclein.

Q: For `O=S([O-])([O-])=S.[Na+].[Na+]` [sodium thiosulfate], which “effect on alpha synuclein-mediated toxicity” value is on record?
A: enhancers of alpha synuclein-mediated toxicity

Q: “sodium phosphate [sodium phosphate pH 7]” was tested. Which “effect on alpha synuclein-mediated toxicity” value did it give?
A: enhancers of alpha synuclein-mediated toxicity

Same assay, conditions: yeast expressing one copy of alpha synuclein; Phenotype MicroArray

Q: `CCCCCCCCCCCCC/C=C/[C@@H](O)[C@@H](N)CO` [D-Sphingosine] was tested. Which “effect on alpha synuclein-mediated toxicity” value did it give?
A: enhancers of alpha synuclein-mediated toxicity

Q: With `CC[C@H](C)[C@H](N)C(=O)O` [L-Isoleucine] as the compound, how does the “effect on alpha synuclein-mediated toxicity” value read?
A: enhancers of alpha synuclein-mediated toxicity

Q: How did the “effect on alpha synuclein-mediated toxicity” value turn out when `CSCC[C@H](NC(=O)[C@@H](N)Cc1ccccc1)C(=O)O` [Phe-Met] (H-Phe-Met-OH) was run?
A: enhancers of alpha synuclein-mediated toxicity

Q: `COc1ccc(C[C@H]2NC[C@H](O)[C@H]2OC(C)=O)cc1` [anisomycin] was tested. Which “effect on alpha synuclein-mediated toxicity” value did it give?
A: enhancers of alpha synuclein-mediated toxicity

Q: Which “effect on alpha synuclein-mediated toxicity” value does the source give for `CC1=C(C(=O)Nc2ccccc2)SCCO1` [carboxin] here?
A: enhancers of alpha synuclein-mediated toxicity

Q: How did the “effect on alpha synuclein-mediated toxicity” value turn out when `COc1ccc2c(c[n+](C)c3c4cc5c(cc4ccc23)OCO5)c1OC` [chelerythrine] was run?
A: enhancers of alpha synuclein-mediated toxicity

Q: With `CN(C)C(=O)/N=N/C(=O)N(C)C` [diamide] as the compound, how does the “effect on alpha synuclein-mediated toxicity” value read?
A: enhancers of alpha synuclein-mediated toxicity

Q: How did the “effect on alpha synuclein-mediated toxicity” value turn out when `OP(O)(=S)S` [dithiophosphate] was run?
A: enhancers of alpha synuclein-mediated toxicity

Q: For `CCCCCCCCCCCC[N+](C)(C)C.[Br-]` [dodecyltrimethyl ammonium bromide], which “effect on alpha synuclein-mediated toxicity” value is on record?
A: enhancers of alpha synuclein-mediated toxicity

Q: With `CC[C@@]1([C@@H]2O[C@@H]([C@H]3O[C@@](O)(CO)[C@H](C)C[C@@H]3C)C[C@@H]2C)CC[C@H]([C@]2(C)CC[C@]3(C[C@H](O)[C@@H](C)[C@@H]([C@@H](C)[C@@H](OC)[C@H](C)C(=O)O)O3)O2)O1` [monensin] as the compound, how does the “effect on alpha synuclein-mediated toxicity” value read?
A: enhancers of alpha synuclein-mediated toxicity

Q: For `CC1=C(C(=O)Nc2ccccc2)S(=O)(=O)CCO1` [oxycarboxin], which “effect on alpha synuclein-mediated toxicity” value is on record?
A: enhancers of alpha synuclein-mediated toxicity

Q: Which “effect on alpha synuclein-mediated toxicity” value does the source give for `CC1=CC(=O)c2c(O)cccc2C1=O` [plumbagin] here?
A: enhancers of alpha synuclein-mediated toxicity

Q: How did the “effect on alpha synuclein-mediated toxicity” value turn out when `O=C([O-])c1ccccc1.[Na+]` [sodium benzoate pH 5.2, sodium benzoate] was run?
A: enhancers of alpha synuclein-mediated toxicity

Q: With `OP(O)(O)=S` [thiophosphate] as the compound, how does the “effect on alpha synuclein-mediated toxicity” value read?
A: enhancers of alpha synuclein-mediated toxicity

System: yeast expressing a toxic amount and form of huntingtin
Format: cell-based
Conditions: not given
Source text: For example, the Bioscreen-C system (Labsystem Corp, Helsinki, Finland) permits the growth of up to 200 cell cultures at the same time, under different conditions. Growth rates are monitored optically, recorded automatically, and stored as digital files for further manipulations. […] Mutants and chemicals from a variety of sources will be tested.
(§2) Phenotype MicroArray™ (Biolog, Inc., Hayward, Calif.) was employed to evaluate the ability of various compounds to rescue viability in yeast expressing a toxic amount and form of huntingtin. […] Bioscreen C MBR (Labsystem Corp, Helsinki, Finland) was also used to evaluate the effects of the clioquinols.

Q: With `Oc1cccc2cccnc12` [8-Hydroxyquinoline] as the compound, how does the “effect on huntingtin-mediated toxicity” value read?
A: alleviated huntingtin-mediated toxicity

Same assay, conditions: yeast expressing toxic huntingtin; Bioscreen C MBR

Q: With `Cc1ccc2c(Cl)cc(Cl)c(O)c2n1` [5,7-Dichloro-8-hydroxy-quinaldine] as the compound, how does the “effect on huntingtin-mediated toxicity” value read?
A: alleviated huntingtin-mediated toxicity

Q: How did the “effect on huntingtin-mediated toxicity” value turn out when `O=[N+]([O-])c1ccc(O)c2ncccc12` [8-Hydroxy-5-nitroquinoline] was run?
A: alleviated huntingtin-mediated toxicity

System: yeast expressing two copies of alpha synuclein
Format: cell-based
Conditions: not given
Source text: (§3) An exemplary aS-expressing yeast cell for use in a growth rescue screen described herein is yeast expressing two copies of aS, as described in Outeiro et al. (2003) Science 302:1772. An exemplary htt-expressing strain for use in a growth rescue screen described herein is yeast expressing a fusion protein comprising a FLAG tag and an expanded htt polyQ (103) domain, as described in Meriin et al. (2002) J. Cell Biol. 158:591.
as §1

Q: With `CCC(O)C(=O)O` (racemic) [D,L-a-hydroxy-butyric acid] as the compound, how does the “effect on alpha synuclein-mediated toxicity” value read?
A: suppressors of alpha synuclein-mediated toxicity

Q: For `Oc1c(Cl)cc(Cl)c(Cl)c1Cc1c(O)c(Cl)cc(Cl)c1Cl` [hexachlorophene], which “effect on alpha synuclein-mediated toxicity” value is on record?
A: suppressors of alpha synuclein-mediated toxicity

Q: With `CC(C)Cc1ccc(C(C)C(=O)O)cc1` (stereo not drawn) [ibuprofen] as the compound, how does the “effect on alpha synuclein-mediated toxicity” value read?
A: suppressors of alpha synuclein-mediated toxicity

Q: Which “effect on alpha synuclein-mediated toxicity” value does the source give for `CC(Cc1ccc(O)c(O)c1)C(C)Cc1ccc(O)c(O)c1` (stereo not drawn) [nordihydroguaiaretic acid] here?
A: suppressors of alpha synuclein-mediated toxicity

Q: How did the “effect on alpha synuclein-mediated toxicity” value turn out when sodium metavanadate was run?
A: suppressors of alpha synuclein-mediated toxicity

Same assay, conditions: yeast expressing two copies of alpha synuclein; Phenotype MicroArray

Q: With `Cc1cccc(O)c1` [m-cresol] as the compound, how does the “effect on alpha synuclein-mediated toxicity” value read?
A: suppressors of alpha synuclein-mediated toxicity

Q: Which “effect on alpha synuclein-mediated toxicity” value does the source give for `O=[Si]([O-])[O-].[Na+].[Na+]` [sodium metasilicate] here?
A: suppressors of alpha synuclein-mediated toxicity

Q: How did the “effect on alpha synuclein-mediated toxicity” value turn out when ruthenium red was run?
A: suppressors of alpha synuclein-mediated toxicity

System: yeast expressing a toxic amount and form of huntingtin
Format: cell-based
Conditions: not given
Remark: another data set of the same source
Source text: as §3, §2

Q: For `Oc1cccc2cccnc12` [8-Hydroxyquinoline], which “effect on huntingtin-mediated toxicity (rescue of viability)” value (“effect … (rescue of viability)” for short) is on record?
A: suppressors of huntingtin-mediated toxicity

Q: For `CC(Cc1ccc(O)c(O)c1)C(C)Cc1ccc(O)c(O)c1` (stereo not drawn) [nordihydroguaiaretic acid], which “effect … (rescue of viability)” value is on record?
A: suppressors of huntingtin-mediated toxicity

Same assay, conditions: yeast expressing toxic huntingtin; Phenotype MicroArray

Q: `Cc1ccc2c(Cl)cc(Cl)c(O)c2n1` [5,7-Dichloro-8-hydroxy-quinaldine] was tested. Which “effect … (rescue of viability)” value did it give?
A: suppressors of huntingtin-mediated toxicity

Q: `O=[N+]([O-])c1ccc(O)c2ncccc12` [8-Hydroxy-5-nitroquinoline] was tested. Which “effect … (rescue of viability)” value did it give?
A: suppressors of huntingtin-mediated toxicity

Q: Which “effect … (rescue of viability)” value does the source give for `N=C(N)N` [guanidine hydrochloride] here?
A: suppressors of huntingtin-mediated toxicity

Q: How did the “effect … (rescue of viability)” value turn out when `Cc1cccc(O)c1` [m-cresol] was run?
A: suppressors of huntingtin-mediated toxicity
